# Laboratory results from patent US20260034075A1, “CHOLINE CARBOXYLIC ACID BASED IONIC LIQUIDS AS ANTIMICROBIAL AGENTS” (University of Mississippi, priority 2022, published 2026).
# Key:
# Type in all cases: cell-based
# [1] = system: MRSA [BAA-1708]; assay: Growth inhibition / MBC of Methicillin Resistant Staphylococcus aureus (MRSA); conditions: Table 2; 1:2 mole ratio ILs
# Experimental: (§1) Bacterial Cell Culturing. Expression cells from frozen stock were streaked onto a kanamycin-selected lysogeny broth (LBKan) agar plate using a sterile loop and incubated overnight at 37° C. One colony was then taken from the plate the next day to inoculate 50 mL of sterile LBKan broth and shaken at 37° C. until reaching a growth concentration of 4×10^8 CFU/mL. This protocol was used for bacterial cell culture preparation in all of the experiments described below.
# Growth Inhibition of Methicillin Resistant Staphylococcus Aureus (MRSA). 10% (w/v) solutions of IL in sterile water were prepared similarly to the E. coli MBC experiments. ILs with anion chain lengths of 8-12 carbons at 1:2 mole ratio of choline to anion were added to MRSA at varying concentrations to determine the lowest concentration in which growth was inhibited. Concentrations were then compared to values obtained for E. coli for each solution.
# [2] = system: Human embryonic kidney (HEK-293) cells
# Experimental: Cytotoxicity Studies. Human embryonic kidney (HEK-293) cells were treated in vitro with four of the top candidates (CADA 1:1, CADA 1:2, CA2DE 1:2, and CA3DE 1:2) to determine the concentration at which the IL dosage is toxic to human cells. 1% (w/v) solutions of each IL in sterile water were prepared similarly to the MBC experiments before addition at five different concentrations. The HEK cells were incubated with the IL treatments for 24 hours and then prepared with CellTiter-Glo(R) Luminescent Cell Viability reagent (100 μL per well). Brightfield microscopy images were used to qualitatively depict the concentration at which the cells were no longer viable, while a 96-well plate reader was used to quantitatively determine the percent viability of the cells at each concentration of the ILs. Quantitative measurements were performed in triplicate.
# Human Biocompatibility Studies. […]
# The viability of the cells was then quantified by preparing the IL-treated cells with 100 μL of CellTiter-Glo(R) Luminescent Cell Viability reagent in each well and measuring the luminescence on the plate reader. […] The results are expressed as percent viability and present as mean±standard deviation of three independent experiments (FIGS. 8A-8D). […]
# [3] = system: E. coli [BL21(DE3)]; assay: Minimal Bactericidal Concentration (MBC) measurements, E. coli
# Experimental: as §1
# Minimal Bactericidal Concentration (MBC) Measurements. E. coli cells were cultured as described above and aliquoted into sterile tubes. 1%, 10%, and 100% (w/v) solutions of IL in sterile water (correcting for water percentage of the IL) were prepared and sonicated for 15 minutes at 40° C. before addition to the liquid culture. IL solutions were then added to E. coli at varying percentages (v/v), allowing calculation of the actual concentration of IL that was added to the culture. 100 μL of each solution was then spread onto an LBKan agar plate and incubated overnight at 37° C. […] Each IL solution was tested in triplicate.
# [4] = system: E. coli; assay: E. coli kinetic study (OD600 over 16 hours, first-order kinetics fit)
# Experimental: E. coli Kinetic Study. A 96-well plate was filled with 180 μL of E. coli cells that were cultured as mentioned above and treated with 20 μL CADA 1:1 of concentrations ranging from the lethal concentration to one-sixteenth of that concentration to determine how the growth inhibition is affected with changing concentration of the IL. 20 μL of growth media was added to the “untreated” cells such that all wells contained a total volume of 200 μL. The plate was heated to 37° C. with triplicate OD600 measurements taken every 20 minutes over the course of 16 hours with a Biotek Synergy H1 microplate reader.
# Bactericidal and Bacteriostatic Activity Kinetics. […] CADA 1:1 was employed instead of CADA 1:2 in this study because of its lowered turbidity in comparison. 180 μL of liquid E. coli culture was added to each well of a 96-well plate and brought up to 200 μL with either IL treatment or growth media alone if untreated. […] However, the cells treated with sublethal concentrations of IL still show what seem to be minor inhibitory interactions with the IL before exiting the lag phase and starting to grow. […] The turbidity of longer chain choline carboxylic acid-based ILs is quite high in aqueous solution and can falsely be determined as growth in OD measurements. Previous studies have shown that the critical micellar concentration (CMC) tends to […] with alkyl chain length and ionic strength, which could potentially affect antimicrobial efficacy. Therefore, IL solutions in sterile water at the same concentrations used to treat the bacteria were utilized as a control and subtracted from the wells with E. coli cells receiving IL treatment.
# Integration of Growth Inhibition Following First-Order Kinetics. […] This was achieved by plotting In([A]T/[A]0) vs. time during the growth period to produce a linear representation of the logarithmic growth. Once the integrations were performed and plotted, rate constants were extracted with uncertainty from the slope of the trendlines. For the untreated cells and cells treated with sublethal concentrations, the logarithmic growth was positive, therefore, the rate constant should be positive. […] The rate of inhibition (k=0.0055±0.0002) was almost one-third of the growth rate of the cells that received no treatment, meaning that the inhibition is occurring immediately and for the duration of the study, suppressing the natural growth of the cells by 70%.
# [5] = Table 1, lowest IL concentration with no growth on LBKan agar plate, triplicate
Compound,MRSA MBC [1] [µM],percent viability [2],E. coli MBC / killing efficacy concentration [3] [µM],"E. coli MBC [3, 5] [µM]","E. coli MBC ([3]; Table 2, comparison with MRSA) [µM]",suppression of the natural growth of the cells ([4]; lethal concentration) [%],"rate of inhibition k ([4]; lethal concentration, first-order fit of OD600)","OD600 course at lethal concentration ([4]; lethal concentrations, 16 hours)","delay of normal growth after the untreated cells entered the log phase ([4]; sublethal doses, extended lag phase)",growth rate relative to the rate of the untreated cells ([4]; sublethal treatment),"growth rate constant k ([4]; sublethal treatment, first-order fit of OD600)"
Choline Decanoate 1:2 [CADA 1:2],2230,> 60%,560,560,560,–,–,–,–,–,–
"CCCCCCCCCC(=O)[O-].C[N+](C)(C)CCO [CADA 1:1, Choline Decanoate 1:1]",–,over 97%,–,3480,–,70,0.0055±0.0002,inhibited immediately with a steady decrease in OD600,about two,20-25%,0.0039±0.0002
